Experimental data as given in patent publication US8791267B2, “Biaryl PDE4 inhibitors for treating inflammatory, cardiovascular and CNS disorders” (Decode Genetics EHF, priority 2007, dated 2014).
Structures can show the parent of a compound that is named as a salt.

Columns and labels:
[1] = biological target: PDE4B (Homo sapiens, UniProt Q07343); assay: In-vitro assay for PDE4 enzymes, real-time enzyme-coupled spectrophotometric assay, PDE4B Activity (Table 10); assay type: biochemical; settings: human PDE4B (hPDE4B), enzyme-coupled spectrophotometric assay; read-out: PDE4B Activity, hPDE4B
[2] = biological target: PDE4 (Homo sapiens, UniProt Q08499); assay: In-vitro assay for PDE4 enzymes, real-time enzyme-coupled spectrophotometric assay (Table 9); assay type: biochemical; settings: human PDE4D; activity class, Table 9; read-out: hPDE4D
PDE4, sequence (Q08499 whole entry): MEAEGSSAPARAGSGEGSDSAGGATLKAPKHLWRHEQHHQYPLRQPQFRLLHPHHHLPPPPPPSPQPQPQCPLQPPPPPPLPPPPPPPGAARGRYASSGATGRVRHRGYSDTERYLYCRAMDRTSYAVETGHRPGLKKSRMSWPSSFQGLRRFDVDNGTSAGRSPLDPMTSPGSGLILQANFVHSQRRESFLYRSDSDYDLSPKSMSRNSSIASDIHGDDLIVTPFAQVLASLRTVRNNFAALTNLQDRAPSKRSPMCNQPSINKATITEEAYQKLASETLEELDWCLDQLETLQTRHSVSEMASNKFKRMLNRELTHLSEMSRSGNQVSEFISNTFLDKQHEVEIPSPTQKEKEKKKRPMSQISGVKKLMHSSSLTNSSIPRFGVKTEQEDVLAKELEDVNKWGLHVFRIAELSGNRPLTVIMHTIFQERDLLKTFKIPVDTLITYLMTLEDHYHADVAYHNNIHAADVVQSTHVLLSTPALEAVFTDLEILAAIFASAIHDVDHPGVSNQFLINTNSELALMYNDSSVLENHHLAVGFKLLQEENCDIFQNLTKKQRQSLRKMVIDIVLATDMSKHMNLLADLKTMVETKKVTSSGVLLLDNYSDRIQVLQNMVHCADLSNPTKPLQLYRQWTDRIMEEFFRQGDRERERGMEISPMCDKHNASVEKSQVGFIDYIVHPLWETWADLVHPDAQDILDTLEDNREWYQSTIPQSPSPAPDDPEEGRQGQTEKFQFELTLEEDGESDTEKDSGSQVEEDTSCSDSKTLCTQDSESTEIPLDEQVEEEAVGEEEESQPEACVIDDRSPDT

PDE4B, sequence (Q07343 whole entry): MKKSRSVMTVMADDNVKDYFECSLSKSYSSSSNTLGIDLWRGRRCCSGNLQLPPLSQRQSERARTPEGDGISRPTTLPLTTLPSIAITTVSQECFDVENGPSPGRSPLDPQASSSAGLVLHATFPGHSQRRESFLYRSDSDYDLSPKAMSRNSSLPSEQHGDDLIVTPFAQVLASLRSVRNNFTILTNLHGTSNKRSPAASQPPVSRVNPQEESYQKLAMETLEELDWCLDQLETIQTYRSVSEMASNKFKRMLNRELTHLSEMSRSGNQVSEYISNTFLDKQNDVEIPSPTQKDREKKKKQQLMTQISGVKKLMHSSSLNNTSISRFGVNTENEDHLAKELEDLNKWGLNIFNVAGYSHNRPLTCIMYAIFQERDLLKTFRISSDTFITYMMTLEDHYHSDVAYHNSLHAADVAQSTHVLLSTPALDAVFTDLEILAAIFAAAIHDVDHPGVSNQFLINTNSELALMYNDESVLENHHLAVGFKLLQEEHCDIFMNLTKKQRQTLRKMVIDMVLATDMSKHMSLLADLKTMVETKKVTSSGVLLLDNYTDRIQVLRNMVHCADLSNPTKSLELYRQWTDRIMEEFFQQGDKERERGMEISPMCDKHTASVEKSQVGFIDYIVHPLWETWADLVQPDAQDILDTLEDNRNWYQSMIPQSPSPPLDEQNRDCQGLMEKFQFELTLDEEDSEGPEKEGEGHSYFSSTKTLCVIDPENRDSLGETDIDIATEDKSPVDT

SMILES | IC50 [1] | IC50 [2]
COc1ccc(Cc2ccc3c(c2)OCO3)nc1-c1cccc([N+](=O)[O-])c1 [P-021, 6-benzo[1,3]dioxol-5-ylmethyl-3-methoxy-2-(3-nitro-phenyl)-pyridine] | 5 to 20 µM | < 5 µM
O=C1CCCN1Cc1ccc(O)c(-c2cccc([N+](=O)[O-])c2)c1O [P-504, 1-(2,6-Dihydroxy-3′-nitro-biphenyl-3-ylmethyl)-pyrrolidin-2-one] | 5 to 20 µM | < 5 µM
COc1ccc(Cn2cc(C(N)=O)ccc2=O)cc1-c1cccc([N+](=O)[O-])c1 [P-212, 1-(6-Methoxy-3′-nitro-biphenyl-3-ylmethyl)-6-oxo-1,6-dihydro-pyridine-3-carboxylic acid amide] | 5 to 20 µM | 5 to 20 µM
COc1ccc(Nc2ccc(N)cc2)cc1-c1cccc(C(C)=O)c1 [P-260, 1-[5′-(4-Amino-phenylamino)-2′-methoxy-biphenyl-3-yl]-ethanone hydrochloride] | 5 to 20 µM | < 5 µM
COc1ccc(Cc2ccc(NS(C)(=O)=O)cc2)cc1-c1cccc([N+](=O)[O-])c1 [P-123] | < 5 µM | < 5 µM
COc1ccc(Cc2ccc(N)nc2)c(F)c1-c1cccc(Cl)c1 [P-252, 5-(3′-Chloro-2-fluoro-6-methoxy-biphenyl-3-ylmethyl)-pyridin-2-ylamine] | < 5 µM | < 5 µM
COc1ccc(Cc2ccc(CO)nc2)c(F)c1-c1cccc(Cl)c1 [P-599, [5-(3′-Chloro-2-fluoro-6-methoxy-biphenyl-3-ylmethyl)-pyridin-2-yl]-methanol] | < 5 µM | < 5 µM
COc1ccc(CN2CCCC2=O)cc1-c1cccc(C(C)=O)c1 [P-172, 1-(3′-Acetyl-6-methoxy-biphenyl-3-ylmethyl)-pyrrolidin-2-one] | < 5 µM | < 5 µM
COc1ccc(Cc2ccc(N)nc2)nc1-c1cccc(Cl)c1 [P-379, 5-[6-(3-chloro-phenyl)-5-methoxy-pyridin-2-ylmethyl]-pyridin-2-ylamine] | < 5 µM | < 5 µM
COc1ccc(Cc2ccc(NC(=O)CN(C)C)cc2)cc1-c1cccc([N+](=O)[O-])c1 [P-144] | < 5 µM | < 5 µM
[2H]C(O)(c1ccc([N+](=O)[O-])cc1)c1ccc(OC)c(-c2cccc(Cl)c2)c1 (centres unmarked) [P-583] | 5 to 20 µM | < 5 µM
COc1ccc(Cc2cnc(NS(C)(=O)=O)nc2)c(F)c1-c1cccc(C(C)=O)c1 [P-284, N-[5-(3′-Acetyl-2-fluoro-6-methoxy-biphenyl-3-ylmethyl)-pyrimidin-2-yl]-methanesulfonamide] | < 5 µM | < 5 µM
COc1ccc(Cc2ccc(CNS(C)(=O)=O)c(O)c2)c(F)c1-c1cccc(Cl)c1 [P-299] | 5 to 20 µM | < 5 µM
COc1ccc(Cc2ccc(NC(=O)CCC(=O)O)cc2)cc1-c1cccc([N+](=O)[O-])c1 [P-122] | 5 to 20 µM | < 5 µM
COc1ccc(CN2CCCC2=O)cc1-c1cccc(-c2nnco2)c1 [P-186] | 21 to 40 µM | 20 to 40 µM
COC(=O)c1cccc(-c2cc(Cn3cncn3)ccc2OC)c1 [P-022, 2′-Methoxy-5′-[1,2,4]triazol-1-ylmethyl-biphenyl-3-carboxylic acid methyl ester] | 5 to 20 µM | < 5 µM
COc1ccc(Cc2c(C)noc2C)cc1-c1ccc2c(c1)OCO2 [P-062, 4-(3-Benzo[1,3]dioxol-5-yl-4-methoxy-benzyl)-3,5-dimethyl-isoxazole] | < 5 µM | < 5 µM
COc1ccc(Cc2ccc(CO)cc2)c(O)c1-c1cccc([N+](=O)[O-])c1 [P-183, 3-(4-Hydroxymethyl-benzyl)-6-methoxy-3′-nitro-biphenyl-2-ol] | < 5 µM | < 5 µM
COc1ccc(Cc2ccc(F)cc2)cc1-c1cccc(C(C)=O)c1 [P-140, 1-[5′-(4-Fluoro-benzyl)-2′-methoxy-biphenyl-3-yl]-ethanone] | < 5 µM | < 5 µM
COc1ccc(Cc2cccc(O)c2)cc1-c1cccc([N+](=O)[O-])c1 [P-102, 3-(6-Methoxy-3′-nitro-biphenyl-3-ylmethyl)-phenol] | < 5 µM | < 5 µM
COc1ccc(CC2CCCS2)c(F)c1-c1cccc([N+](=O)[O-])c1 (centres unmarked) [P-127] | < 5 µM | < 5 µM
COc1ccc(CNS(=O)(=O)c2ccc(NC(C)=O)cc2)c(F)c1-c1cccc(Cl)c1 [P-251, N-{4-[(3′-Chloro-2-fluoro-6-methoxy-biphenyl-3-ylmethyl)-sulfamoyl]-phenyl}-acetamide] | < 5 µM | < 5 µM
CCNC(=O)Nc1ccc(Cc2ccc(OC)c(-c3cccc(Cl)c3)c2F)cc1 [P-250] | < 5 µM | < 5 µM
COc1ccc(Cc2cccc(N)c2)c(F)c1-c1cccc(Cl)c1 [P-234] | < 5 µM | < 5 µM
COc1ccc(Cn2cnc(C(N)=O)c2)c(F)c1-c1cccc(Cl)c1 [P-534, 1-(3′-Chloro-2-fluoro-6-methoxy-biphenyl-3-ylmethyl)-1H-imidazole-4-carboxylic acid amide] | < 5 µM | < 5 µM
COc1ccc(Cc2ccc(C(C)N)nc2)c(F)c1-c1cccc(Cl)c1 (centres unmarked) [P-606, 1-[5-(3′-Chloro-2-fluoro-6-methoxy-biphenyl-3-ylmethyl)-pyridin-2-yl]-ethylamine] | < 5 µM | < 5 µM
COc1ccc(Cc2ccc(OC)c(-c3cccc([N+](=O)[O-])c3)c2O)cn1 [P-125] | < 5 µM | < 5 µM
COc1ccc(Cc2ccc(CN3CCN(C)C3=O)nc2)c(F)c1-c1cccc(Cl)c1 [P-375, 1-[5-(3′-Chloro-2-fluoro-6-methoxy-biphenyl-3-ylmethyl)-pyridin-2-ylmethyl]-3-methyl-imidazolidin-2-one] | < 5 µM | < 5 µM
COc1ccc(CN2CCCC2=O)cc1-c1cccc(SC)c1 [P-245, 1-(6-methoxy-3′-methylsulfanyl-biphenyl-3-ylmethyl)-pyrrolidin-2-one] | < 5 µM | 5 to 20 µM

Further lines, results first:

IC50 [1] | IC50 [2] | SMILES
< 5 µM | < 5 µM | COc1ccc(Cc2c(C)n[nH]c2C)cc1-c1cccc([N+](=O)[O-])c1 [P-089, 4-(6-Methoxy-3′-nitro-biphenyl-3-ylmethyl)-3,5-dimethyl-1H-pyrazole]
< 5 µM | 5 to 20 µM | COc1ccc(Cn2ccc(C(N)=O)cc2=O)cc1-c1cccc([N+](=O)[O-])c1 [P-207, 1-(6-Methoxy-3′-nitro-biphenyl-3-ylmethyl)-2-oxo-1,2-dihydro-pyridine-4-carboxylic acid amide]
< 5 µM | < 5 µM | COc1ccc(Cc2ccc(OC[C@H]3CCCN3)nc2)c(F)c1-c1cccc(Cl)c1 [P-523, 5-(3′-Chloro-2-fluoro-6-methoxy-biphenyl-3-ylmethyl)-2-((R)-1-pyrrolidin-2-ylmethoxy)-pyridine]
< 5 µM | < 5 µM | CCNC(=O)Nc1ccc(Cc2ccc(OC)c(-c3cccc(C#N)c3)c2)cn1 [P-400, 1-[5-(3′-Cyano-6-methoxy-biphenyl-3-ylmethyl)-pyridin-2-yl]-3-ethyl-urea]
< 5 µM | < 5 µM | COc1ccc(Cc2ccc(C#N)nc2)c(F)c1-c1cccc(Cl)c1 [P-355]
< 5 µM | < 5 µM | COc1ccc(Cc2c(C)noc2C)c(O)c1-c1cccc([N+](=O)[O-])c1 [P-174]
< 5 µM | < 5 µM | NC(=O)Nc1ccc(Cc2ccc(OC(F)F)c(-c3cccc(Br)c3)c2F)cc1 [P-323]
< 5 µM | < 5 µM | COc1ccc(Cc2ccc(OCCN3CCCCC3)cc2)cc1-c1cccc([N+](=O)[O-])c1 [P-166]
< 5 µM | < 5 µM | Nc1ccc(Cc2ccc(OC(F)F)c(-c3cccc(Cl)c3)c2)cn1 [P-611, 5-(3′-Chloro-6-difluoromethoxy-biphenyl-3-ylmethyl)-pyridin-2-ylamine hydrochloride]
< 5 µM | < 5 µM | COc1ccc(Cc2ccc(N3CCCC3)nc2)c(F)c1-c1cccc(Cl)c1 [P-582, 5-(3′-Chloro-2-fluoro-6-methoxy-biphenyl-3-ylmethyl)-2-pyrrolidin-1-yl-pyridine]
< 5 µM | < 5 µM | COc1ccc(Cc2ccc(NC(N)=O)nc2)c(F)c1-c1cccc(Cl)c1 [P-259]
< 5 µM | < 5 µM | CCNC(=O)Nc1nnc(Cc2ccc(OC)c(-c3cccc(Cl)c3)c2F)s1 [P-343, 1-[5-(3′-Chloro-2-fluoro-6-methoxy-biphenyl-3-ylmethyl)-[1,3,4]thiadiazol-2-yl]-3-ethyl-urea]
< 5 µM | < 5 µM | CCNC(=O)Nc1ccc(Cc2ccc(OC)c(-c3cccc(Cl)c3)n2)cn1 [P-386, 1-{5-[6-(3-chloro-phenyl)-5-methoxy-pyridin-2-ylmethyl]-pyridin-2-yl}-3-ethyl-urea hydrochloride]
< 5 µM | < 5 µM | CCNC(=O)Nc1ccc(Cc2ccc(OC)c(-c3cccc(Cl)c3)c2F)cn1 [P-356]
< 5 µM | < 5 µM | COc1ccc(C(=O)c2ccc(N)cc2)cc1-c1cccc(F)c1 [P-579]
< 5 µM | < 5 µM | COc1ccc(Cc2ccc(N)nc2)cc1-c1cccc([N+](=O)[O-])c1 [P-111]
< 5 µM | < 5 µM | COc1ccc(Cc2ccc(C(N)=O)nc2)c(F)c1-c1cccc(C#N)c1 [P-415, 5-(3′-Cyano-2-fluoro-6-methoxy-biphenyl-3-ylmethyl)-pyridine-2-carboxylic acid amide]
< 5 µM | < 5 µM | COc1ccc(Cc2ccc(NC(N)=O)cc2)cc1-c1cccc(Cl)c1 [P-378, [4-(3′-chloro-6-methoxy-biphenyl-3-ylmethyl)-phenyl]-urea]
< 5 µM | < 5 µM | COc1ccc(Cc2ccc(-n3cncn3)nc2)c(F)c1-c1cccc(Cl)c1 [P-412]
< 5 µM | < 5 µM | COc1ccc(Cc2ccc(OCCN(C)C)nc2)c(F)c1-c1cccc(Cl)c1 [P-588, {2-[5-(3′-Chloro-2-fluoro-6-methoxy-biphenyl-3-ylmethyl)-pyridin-2-yloxy]-ethyl}-dimethyl-amine]
